This is an account of results in US20230310424A1, “METHODS AND MATERIALS FOR INCREASING NICOTINAMIDE PHOSPHORIBOSYL TRANSFERASE ACTIVITY” (University of Pittsburgh - Of the Commonwealth System of …, priority 2020, published 2023).

The test relates to NAD^+ levels in cells. Description: Assay for Total NADH and NAD+ Measurements in Cells. The format is cell-based. Particulars: cells incubated overnight with test compound; 100 percent = no change vs untreated control cells; cell type and concentration not given. The method, then:
2,000 cells/well and, at the same time, test compounds dissolved in media at the desired concentration were added to each well. The treated cells were incubated overnight in CO2 incubator. The cells were washed 6 times with PBS with 1 mM CaCl2 and 1 mM MgCl2. In the last wash, 10 μL of PBS with 1 mM CaCl2 and 1 mM MgCl2 per well were left in each well. Immediately thereafter, 10 μL 0.4% dodecyltrimethyl-ammonium bromide (DTAB) in phosphate buffer pH 8.0 as added, and the plates were shaked at 1000 rpm for 5 minutes. 60 μL reaction mix was added, and fluorescence at Ex/Em 530/585 was immediately monitored. A linear increase should be achieved with 8 cycles every 92 seconds, 10 number of flashes/well/cycle. The reaction mix was prepared per the following table, respecting the amount and order in which each component was added:
A percentage of 100 percent would indicate no increase or decrease in NAD^+ levels as compared to that measured for untreated control cells, while a percentage of 125 percent would indicate an increase in NAD^+ levels of 25 percent as compared to that measured for untreated control cells.
On to `CN1CCN(C(=O)c2ccc3nc(C(F)(F)F)c(-c4cccnc4)nc3c2)CC1` [BC19105], for which the “A: increase in NAD^+ levels in cells in response to the test compound, as the percent of NAD^+ levels compared to that in the absence of the test compound” value was 105%.
Under `CN1CCN(C(=O)c2ccc3nc(-c4cccs4)c(-c4ccc(F)cc4)nc3c2)CC1` [BC19109] stands 111%; under `CN1CCN(C(=O)c2ccc3nc(-c4ccc(F)cc4)c(C(F)(F)F)nc3c2)CC1` [BC19110], 105%; under `Fc1ccc(-c2nc3cc(-c4nnn[nH]4)ccc3nc2C(F)(F)F)cc1` [BC19113], 110%.
With `NC(=O)c1ccc2nc(-c3ccc(F)cc3)c(C(F)(F)F)nc2c1` [BC19117], the “A: increase in NAD^+ levels in cells in response to the test compound, as the percent of NAD^+ levels compared to that in the absence of the test compound” value turned out to be 116%.
Under `O=C(O)c1ccc2nc(-c3ccc(F)cc3)c(-c3ccc(F)cc3)nc2c1` [BC19118] stands 108%; under `CNC(=O)c1ccc2nc(-c3cccs3)c(-c3ccc(F)cc3)nc2c1` [BC19119], 112%; under `Fc1ccc(-c2nc3ccc(-c4nnn[nH]4)cc3nc2-c2ccc(F)cc2)cc1` [BC19144], 107%.
The same measure for `Fc1ccc(-c2nc3ccc(-c4ncco4)cc3nc2-c2ccc(F)cc2)cc1` [BC19145]: 106%; for `CN1CCN(C(=O)c2ccc3nc(C(F)(F)F)c(-c4ccncc4)nc3c2)CC1` [BC19149]: 106%; for `O=C(O)c1ccc2nc(-c3ccc(F)cc3)c(-c3cccs3)nc2c1` [BC19156]: 105%.
For `Fc1ccc(-c2nc3cc(-c4nnn[nH]4)ccc3nc2-c2cccs2)cc1` [BC19186], the “A: increase in NAD^+ levels in cells in response to the test compound, as the percent of NAD^+ levels compared to that in the absence of the test compound” value was 105%.
Under `NC(=O)c1ccc2nc(-c3ccc(F)cc3)c(-c3cccs3)nc2c1` [BC19187] stands 113%; under `C#CCNC(=O)c1ccc2nc(-c3ccc(F)cc3)c(-c3cccs3)nc2c1` [BC19189], 109%; under `Cc1noc(-c2ccc3nc(-c4ccc(F)cc4)c(-c4ccc(F)cc4)nc3c2)n1` [BC19193], 109%.
The same measure for `CS(=O)(=O)c1ccc(-c2nc3ccc(-c4ncco4)cc3nc2-c2ccc(F)cc2)s1` [BC19248]: 125%; for `Cc1cnc(-c2ccc3nc(-c4ccc(F)cc4)c(-c4cccs4)nc3c2)o1` [BC19249]: 119%; for `Cn1cnnc1-c1ccc2nc(-c3ccc(F)cc3F)c(-c3ccccc3)nc2c1` [BC19444]: 112%.
Under `CN1CCN(C(=O)c2ccc3nc(-c4ccc(C#N)cc4)c(-c4ccc(C#N)cc4)nc3c2)CC1` [BC19446] stands 106%.
Consider `C#CCNC(=O)c1ccc2nc(-c3cccc(N(C)C)c3)c(-c3cccc(N(C)C)c3)nc2c1` [BC19499], for which the “A: increase in NAD^+ levels in cells in response to the test compound, as the percent of NAD^+ levels compared to that in the absence of the test compound” value came out at 165%.
In the case of `CN(C)c1cccc(-c2nc3ccc(C(=O)O)cc3nc2-c2cccc(N(C)C)c2)c1` [BC19500], the “A: increase in NAD^+ levels in cells in response to the test compound, as the percent of NAD^+ levels compared to that in the absence of the test compound” value worked out at 107%.
The same measure for `CN(C)c1cccc(-c2nc3ccc(C(=O)NCCO)cc3nc2-c2cccc(N(C)C)c2)c1` [BC19502]: 115%; for `COCCNC(=O)c1cnc2nc(-c3ccc(F)cc3)c(-c3ccc(F)cc3)nc2c1` [BC20200]: 132%; for `CN(C)CCNC(=O)c1cnc2nc(-c3ccc(F)cc3)c(-c3ccc(F)cc3)nc2c1` [BC20201]: 133%.
Under `C#CCNC(=O)c1cnc2nc(-c3ccc(F)cc3)c(-c3ccc(F)cc3)nc2c1` [BC20257] stands 130%.
As for `C#CCNC(=O)c1ccc2nc(-c3cccc(NC(=O)CN(C)C)c3)c(-c3cccc(NC(=O)CN(C)C)c3)nc2c1` [BC20287], the “A: increase in NAD^+ levels in cells in response to the test compound, as the percent of NAD^+ levels compared to that in the absence of the test compound” value is 120%.
